Test systems include Escherichia coli K88; Escherichia coli 078; Escherichia coli K99; Escherichia coli UB1005; Escherichia coli MG1655; Candida albicans; Staphylococcus xylosus.
Holding throughout (experiment): ≥ marks a high value that may be exact or a test limit, other limits are often not marked, values filed in µg/mL are converted to µM
For assay [1], the system named is Staphylococcus aureus ATCC 25923.
The subject of assay [2] is Candida tropicalis CGMCC 2.1975.
Assay [3] has as its system Pseudomonas aeruginosa ATCC 27853.
The subject of assay [4] is Salmonella enterica subsp. enterica serovar Typhimurium C77-31.
Assay [5] relates to Salmonella enterica subsp. enterica serovar Pullorum ATCC 7913.
For assay [6], the system named is Candida parapsilosis CGMCC 2.3989.
Assay [7] concerns Staphylococcus epidermidis ATCC 12228.
In assay [8] the test system is Salmonella enterica subsp. enterica serovar Typhimurium ATCC 14028.
The subject of assay [9] is Staphylococcus aureus ATCC 43300.
The subject of assay [10] is Micrococcus luteus ATCC 4698.
Assay [11] concerns Pseudomonas aeruginosa ATCC 10145.
Assay [12] deals with Klebsiella pneumoniae ATCC 700603.
For assay [13], the system named is Candida albicans CGMCC 2.2086.
The test system of assay [14] is Legionella pneumophila Lens.
Assay [15] concerns Escherichia coli DH5alpha.

≈ marks a conversion by molar mass, not a printed value. Where “and” joins values, the source holds several entries; their conditions need not be identical. Identical values can stand only once. Some results are limits rather than exact numbers.

What is called MIC is the least concentration at which growth counts as inhibited. Turning to `CC[C@H](C)[C@H](NC(=O)[C@H](CCCN=C(N)N)NC(=O)[C@H](C)NC(=O)[C@H](C)N)C(=O)N[C@H](C(=O)N[C@@H](CC(C)C)C(=O)N[C@@H](CCCN=C(N)N)C(=O)N[C@@H](Cc1c[nH]c2ccccc12)C(=O)N[C@@H](Cc1ccccc1)C(=O)N[C@@H](CCCN=C(N)N)C(=O)N[C@@H](CCCN=C(N)N)C(N)=O)[C@@H](C)CC` [AARIILRWFRR], the minimal inhibitory concentration (MIC) in assay [1] worked out at 8 µM (≈ 11.7 µg/mL); in assay [2], 4 µM (≈ 5.83 µg/mL); in assay [3], 8 µM (≈ 11.7 µg/mL); in the assay on Escherichia coli K88, 2 µM (≈ 2.91 µg/mL); in assay [4] it was 4 µM (≈ 5.83 µg/mL); in assay [5], 4 µM (≈ 5.83 µg/mL). The MIC in the assay on Escherichia coli 078 was determined as 1.37 µM (≈ 2 µg/mL); against Escherichia coli K99 it was 2 µM (≈ 2.91 µg/mL); against Escherichia coli UB1005 it was 2 µM (≈ 2.91 µg/mL); in assay [6], 4 µM (≈ 5.83 µg/mL); in assay [7], 2 µM (≈ 2.91 µg/mL); in assay [8], 4 µM (≈ 5.83 µg/mL). This compound also came in with a minimal inhibitory concentration (MIC) in assay [9] of 8 µM (≈ 11.7 µg/mL).

In the case of `CC(C)C[C@@H]1NC(=O)[C@H](CCCN=C(N)N)NC(=O)[C@H](CCCCN)NC(=O)[C@H](Cc2c[nH]c3ccccc23)NC(=O)CNC(=O)CNC(=O)[C@@H](N)CSSC[C@@H](C(=O)O)NC(=O)[C@H](CCCN=C(N)N)NC1=O` [CGGWKRLRC], the minimum inhibitory concentration (MIC) in assay [10] came to 13 µM (≈ 14 µg/mL).

`CC(C)C[C@H](NC(=O)[C@H](Cc1ccc(O)cc1)NC(=O)[C@H](Cc1cnc[nH]1)NC(=O)[C@H](CCCCN)NC(=O)[C@H](CC(C)C)NC(=O)[C@H](C)NC(=O)[C@H](CC(C)C)NC(=O)[C@H](CCCCN)NC(=O)CNC(=O)[C@@H](NC(=O)[C@@H](NC(=O)[C@H](CCCCN)NC(=O)[C@@H](NC(=O)[C@H](CCC(=O)O)NC(=O)[C@H](C)NC(=O)[C@H](CCCCN)NC(=O)[C@H](CCCCN)NC(=O)[C@H](CC(C)C)NC(=O)[C@H](CC(C)C)NC(=O)[C@@H](NC(=O)[C@H](CCCCN)NC(=O)[C@H](Cc1c[nH]c2ccccc12)NC(=O)CN)[C@@H](C)O)C(C)C)[C@@H](C)O)C(C)C)C(=O)O` [GWKTLLKKAEVKTVGKLALKHYL]: the minimum inhibitory concentration (MIC) in assay [1] was 2.32 µM (≈ 6.09 µg/mL); in the assay on Escherichia coli MG1655, 9.3 µM (≈ 24.4 µg/mL); in [11] it was 0.29 µM (≈ 0.761 µg/mL); in assay [12] it was more than 9.3 µM.

For the compound `CC[C@H](C)[C@H](NC(=O)CNC(=O)[C@H](CCCCN)NC(=O)[C@H](Cc1ccccc1)NC(=O)[C@H](CC(C)C)NC(=O)[C@H](CC(C)C)NC(=O)[C@H](Cc1ccccc1)NC(=O)[C@H](CCCCN)NC(=O)CNC(=O)[C@@H](NC(=O)[C@@H](N)CCCCN)[C@@H](C)CC)C(=O)N[C@@H](CCCCN)C(=O)N[C@@H](CCCCN)C(=O)N[C@H](C(=O)NCC(=O)N[C@@H](CCCCN)C(=O)N[C@@H](Cc1ccccc1)C(=O)N[C@@H](CC(C)C)C(N)=O)[C@@H](C)CC` [KIGKFLLFKGIKKIGKFL], the MIC was 32 µM (≈ 66.5 µg/mL) with Candida albicans, not below 32 µM in assay [13], 8 µM (≈ 16.6 µg/mL) in assay [2] and not below 32 µM in [6].

Take `CC[C@H](C)[C@H](NC(=O)CNC(=O)[C@H](CCCCN)NC(=O)[C@@H](NC(=O)[C@H](CC(C)C)NC(=O)[C@H](CC(C)C)NC(=O)[C@@H](NC(=O)[C@H](CCCCN)NC(=O)CNC(=O)[C@@H](NC(=O)[C@@H](N)CCCCN)[C@@H](C)CC)C(C)C)C(C)C)C(=O)N[C@@H](CCCCN)C(=O)N[C@@H](CCCCN)C(=O)N[C@H](C(=O)NCC(=O)N[C@@H](CCCCN)C(=O)N[C@H](C(=O)N[C@@H](CC(C)C)C(N)=O)C(C)C)[C@@H](C)CC` [KIGKVLLVKGIKKIGKVL]: the minimum inhibitory concentration (MIC) against Candida albicans was > 64 µM and 32 µM; in assay [13], not below 32 µM; in [2] it was 16 µM (≈ 30.9 µg/mL); in assay [6] it was not below 32 µM.

As for `CC[C@H](C)[C@H](NC(=O)[C@H](CC(C)C)NC(=O)CNC(=O)[C@H](CCCCN)NC(=O)[C@@H](NC(=O)[C@@H](NC(=O)[C@H](CCC(=O)O)NC(=O)[C@@H](NC(=O)[C@@H](NC(=O)[C@H](CCCCN)NC(=O)[C@H](C)NC(=O)[C@@H](NC(=O)[C@@H](NC(=O)[C@H](CC(=O)O)NC(=O)[C@H](C)NC(=O)[C@@H](N)CCSC)C(C)C)[C@@H](C)CC)[C@@H](C)CC)C(C)C)[C@@H](C)CC)C(C)C)C(=O)N[C@@H](CC(=O)O)C(=O)N[C@@H](CCC(N)=O)C(=O)N[C@@H](Cc1ccccc1)C(=O)N[C@H](C(=O)N[C@@H](CCC(N)=O)C(=O)N[C@@H](CCCCN)C(=O)O)[C@@H](C)O` [MADVIAKIVEIVKGLIDQFTQK], in assay [14], the MIC was determined as 1.27 µM (≈ 3.12 µg/mL).

As to `CC[C@H](C)[C@H](NC(=O)[C@H](CC(C)C)NC(=O)[C@H](CCCCN)NC(=O)[C@H](CCCCN)NC(=O)[C@@H](NC(=O)[C@@H](NC(=O)[C@H](CCC(=O)O)NC(=O)[C@@H](NC(=O)[C@@H](NC(=O)[C@H](CCCCN)NC(=O)[C@H](C)NC(=O)[C@@H](NC(=O)[C@@H](NC(=O)CNC(=O)[C@H](C)NC(=O)[C@@H](N)CCSC)C(C)C)[C@@H](C)CC)[C@@H](C)CC)C(C)C)[C@@H](C)CC)C(C)C)C(=O)N[C@@H](CC(=O)O)C(=O)N[C@@H](CCC(N)=O)C(=O)N[C@@H](Cc1ccccc1)C(=O)N[C@H](C(=O)N[C@@H](CCC(N)=O)C(=O)N[C@@H](CCCCN)C(=O)O)[C@@H](C)O` [MAGVIAKIVEIVKKLIDQFTQK], the MIC in assay [14] was determined as 0.94 µM (≈ 2.32 µg/mL).

In assay [14], `CC[C@H](C)[C@H](NC(=O)[C@H](CC(C)C)NC(=O)[C@H](CC(=O)O)NC(=O)[C@@H](NC(=O)[C@@H](NC(=O)[C@H](Cc1ccccc1)NC(=O)[C@H](CCC(N)=O)NC(=O)[C@@H](N)CCSC)[C@@H](C)CC)[C@@H](C)O)C(=O)NCC(=O)N[C@@H](CCCCN)C(=O)N[C@@H](C)C(=O)N[C@H](C(=O)N[C@@H](CC(=O)O)C(=O)N[C@@H](Cc1ccccc1)C(=O)N[C@@H](Cc1ccccc1)C(=O)N[C@@H](CCCCN)C(=O)NCC(=O)N[C@@H](CC(C)C)C(=O)N[C@@H](Cc1ccccc1)C(=O)NCC(=O)N[C@@H](CC(N)=O)C(=O)N[C@@H](CCCCN)C(=O)O)C(C)C` [MQFITDLIGKAVDFFKGLFGNK] displayed a minimal inhibitory concentration (MIC) of 3.7 µM (≈ 9.21 µg/mL).

Turning to `CC[C@H](C)[C@H](NC(=O)[C@H](C)NC(=O)[C@H](CCCCN)NC(=O)[C@@H](NC(=O)[C@@H](NC(=O)[C@H](CCC(=O)O)NC(=O)[C@@H](NC(=O)[C@@H](NC(=O)[C@H](CCCCN)NC(=O)CNC(=O)[C@H](CC(C)C)NC(=O)[C@@H](NC(=O)[C@H](CC(=O)O)NC(=O)[C@H](CCC(N)=O)NC(=O)[C@H](Cc1ccccc1)NC(=O)[C@@H](NC(=O)[C@H](CCC(N)=O)NC(=O)[C@@H](N)CCSC)[C@@H](C)O)[C@@H](C)CC)C(C)C)[C@@H](C)CC)C(C)C)[C@@H](C)CC)C(=O)N[C@H](C(=O)N[C@@H](CC(=O)O)C(=O)N[C@@H](C)C(=O)N[C@@H](CCCCN)C(=O)O)C(C)C` [MQTFQDILGKVIEVIKAIVDAK], the MIC in assay [14] was determined as 5.08 µM (≈ 12.5 µg/mL).

Consider `CC[C@H](C)[C@H](NC(=O)CNC(=O)[C@H](CCCN=C(N)N)NC(=O)[C@H](Cc1ccccc1)NC(=O)[C@H](CC(C)C)NC(=O)[C@H](CC(C)C)NC(=O)[C@H](Cc1ccccc1)NC(=O)[C@H](CCCN=C(N)N)NC(=O)CNC(=O)[C@@H](NC(=O)[C@@H](N)CCCN=C(N)N)[C@@H](C)CC)C(=O)N[C@@H](CCCN=C(N)N)C(=O)N[C@@H](CCCN=C(N)N)C(=O)N[C@H](C(=O)NCC(=O)N[C@@H](CCCN=C(N)N)C(=O)N[C@@H](Cc1ccccc1)C(=O)N[C@@H](CC(C)C)C(N)=O)[C@@H](C)CC` [RIGRFLLFRGIRRIGRFL], for which the MIC against Candida albicans is 8 µM and 5.66 µM; in assay [13] it was 8 µM (≈ 18 µg/mL); in assay [2] it was 8 µM (≈ 18 µg/mL); in [6], 16 µM (≈ 35.9 µg/mL).

Turning to `CC[C@H](C)[C@H](NC(=O)[C@H](CC(C)C)NC(=O)[C@@H](NC(=O)[C@H](CC(C)C)NC(=O)[C@@H](NC(=O)[C@H](CC(C)C)NC(=O)[C@H](CCCCN)NC(=O)[C@H](CCCN=C(N)N)NC(=O)[C@H](CCCCN)NC(=O)[C@@H](N)CCCN=C(N)N)[C@@H](C)CC)[C@@H](C)CC)C(=O)N[C@@H](CCCCN)C(=O)N[C@@H](CCCN=C(N)N)C(=O)N[C@@H](CCCCN)C(=O)N[C@@H](CCCN=C(N)N)C(=O)O` [RKRKLILILIKRKR], the minimum inhibitory concentration (MIC) in [15] was 8 µM (≈ 14.7 µg/mL); in the assay with Staphylococcus xylosus it was 0.5 µM (≈ 0.917 µg/mL).

(Values after DBAASP.)
